What was measured:
[1] = test system: histamine-induced dyspnea; assay: Bronchodilator (in vivo) Guinea Pig Dyspnea; conditions: oral; for responders at 50 mg/kg / responders at 100 mg/kg: Cavia porcellus, 1 h, read-out: DYSP survivors (converted)
Procedure: Unanesthetized guinea pigs (250-350 g), fasted overnight were placed in individual closed aerosol chambers which were connected to a Monoghan Ultrasonic nebulizer. The nebulizer can deliver an ultrasonic fog of uniform particles in a range of 1-8 microns. A 0.1% solution of histamine is aerosolized into the chambers causing the guinea pigs to develop dyspnea. The test drug was given orally one hour before the histamine challenge and the onset of dyspnea was recorded. Saline control animals developed dyspnea within 90-120 seconds of aerosol exposure. […] The data was expressed as the number tested over the number survived. The model was sensitive to bronchodilator and H1 antihistamine activity. Further information relating this test can be obtained from the following two publications which are hereby incorporated by reference: Dungan, K. W. and Lish, P. M. J Allergy 32:139-151 (1961). and Lish, P. M., Robbins, S. I. and Petres E. L. J. Pharmacol. Exp. Therap. 153 L 1538 (1966 ).

[2] = test system: pulmonary resistance; assay: Pulmonary Resistance in the Anesthetized Rat; assay type: in vivo; conditions: 0.5 mpk, i.v., mean of 5 animals, % decrease in pre-drug baseline resistance; for inhibition in vivo at 0.5 mg/kg: Rattus norvegicus, iv, read-out: Pulmonary Resistance in Rats, % Inhibition
Procedure: Rats (400-500 g) anesthetized with dialurethane were surgically prepared with tracheal and esophageal catheters. These catheters were connected to pressure transducers for recording of air flow, tracheal and esophageal pressures. These pressures formed the basis for measurement of pulmonary resistance. Inhibition of pulmonary resistance is a reflection of bronchodilation.
All compounds were tested i. v. in 5 separate animals. All data are expressed in % decrease in the pre-drug baseline resistance and each number given is the mean of the 5 animals tested.
The model is sensitive to bronchodilator activity.
Further information relating this test can be obtained from the following publications which are hereby incorporated by reference: Comroe et al, J. Appl. Physio. 4:439-44 (1959); Dungan et al J. Pharmacol. Exp. Therap. 164:290-301(1968); and Mead, J. et al. J. Appl. Physio. 5:779-796 (1953).

[3] = test system: acetic acid-induced writhing; assay: Acetic Acid Writhing Test in Mice; assay type: in vivo, mouse; conditions: Mus musculus, po, read-out: WRITH ED50
Description: The blockade of writhing induced by the intraperitoneal injection of acetic acid is an established experimental animal model for the screening of antinociceptive drugs (drugs which prevent the appreciation or transmission of pain sensations).
The procedure for the Acetic Acid Writhing Test in Mice is set forth in Hendershot et al, J. Pharmacol. Exp. Therap. 125:237, (1959); Koster et al., Fed. Proc. 18:412, (1959); and international application PCT/US91/06705, filed 20 Sep. 1991, which are hereby incorporated by reference.
The results for this test are given below in the units of mg/kg which is also abbreviated in this specification as mpk. The results for this test are given as effective doses (ED50 's).

[4] = test system: TBZ-induced ptosis; assay: Effects on tetrabenazine (TBZ)-induced ptosis in mice; assay type: in vivo, mouse; conditions: for ED50: Mus musculus, po
Description: Clinically active antidepressant drugs are known to block TBZ-induced ptosis in mice (See Psychosomatic Medicine, Nodine and Moyer, Eds. Lea and Febiger, Philadelphia, 1962, pp 683-90, which is hereby incorporated by reference). Activity in this test is used to predict anti-depressant activity in man.
The procedure for the TBZ-Induced Ptosis Test in Mice is set forth in Psychosomatic Medicine, Nodine and Moyer, Eds. Lea and Febiger, which is hereby incorporated by reference and in PCT/US91/06705, filed 20 Sep. 1991, which is mentioned above.
(§1) The results for this test are given below as ED50 's in the units of mg/kg.
TBZ refers to the test of effects on tetrabenazine induced ptosis in mice, p.o.;

[5] = test system: muricidal (mouse-killing) behavior; assay: Effects on muricidal behavior in rats; assay type: in vivo, rat; conditions: Rattus norvegicus, read-out: MUR ED50
Description: Blockade of muricidal (mouse-killing) behavior in rats is used as a measure of evaluating the anti-depressant activity of drugs, and the procedure for carrying out this test is set forth in Int. J. Neuro-pharmacal., 5, 405-411 (1966) are hereby incorporated by reference, and in PCT/US91/06705, filed 20 Sep. 1991, which is mentioned above.
as §1
MUR refers to the test on the effects on muricidal behavior in rats;

[6] = test system: methamphetamine toxicity; assay: Methamphetamine toxicity test in mice; assay type: in vivo; conditions: Mus musculus, read-out: METHA ED50
Procedure: The methamphetamine toxicity test in mice was carried out as described in Burn et al, Arch. Int. Pharmacodyn 113:290-295, (1958); and Coscia et al, Arzneim-Forsch (Drug Research) 25:1436-1442, (1975); which are hereby incorporated by reference.
(§2) The results for this test are given below as ED50's in the units of mg/kg.
METHA refers to the methamphetamine toxicity test in mice;

[7] = test system: metrazole; assay: Anti-metrazole test in mice; assay type: in vivo, mouse; conditions: Mus musculus, read-out: MTZ ED50
Procedure: The anti-metrazole test in mice was carried out as described in Everett et al, J. Pharmacol. Exp. Therap. 81:402-407 (1944); which is hereby incorporated by reference.
as §2

[8] = test system: LOX human melanoma cell adhesion to human fibronectin; assay: LOX melanoma cell adhesion to fibronectin; assay type: cell-based; conditions: Homo sapiens, LOX; for inhibition at 10 µM: read-out: % Inhibition at 10 μM; for inhibition at 50 µM: read-out: % Inhibition at 50 μM; for IC50: Table 4, 1 hour adhesion, read-out: LOX FN IC50
Procedure: (§3) Adhesion assays were run essentially as described previously (Pai et al., J. Biomed. Res. 2: 53, 1992). 96-well plates were coated with human fibronectin (140 ng/well), human vitronectin (75 ng/well), human collagen I (100 ng/well), human collagen IV (100 ng/well), human fibrinogen (1 μg/well), murine laminin (600 ng/well), or polylysine, and incubated overnight in a humidified 37° C. incubator. Excess fibronectin or other substrate was then removed and 0.2 ml of 2 mg/ml bovine serum albumin (BSA)in Dulbecco's phosphate-buffered saline (DPBS) was added to each well, incubated for 2 hours at 37° C., and removed. LOX human melanoma cells, M27 murine lung carcinoma cells or B16F10 mouse melanoma cells were detached from tissue culture flasks with RPMI medium containing 0.2M urea and 10 mM EDTA, and 0.18 ml of cells were added to each well to a final cell concentration of 1×10^5 cells/well. For inhibition studies 20 μl of 10× compound was added to the wells prior to cell addition. Cells were allowed to adhere for 1 hour at 37° C. The wells were then gently washed twice with 0.2 ml DPBS. The fluorescent dye calcein AM (Molecular Probes, Eugene Oreg.) in DPBS (0.1 ml of 1 μM) was added to each well, and the plates were incubated for 1 hour at room temperature. Adherent cells were quantitated by reading the fluorescence on a Cytofluor 2300 fluorescent plate reader (Millipore) at 485 nm excitation and 530 nm emission.
LOX FN-IC50 value for inhibition of adhesion of LOX human melanoma cells to fibronectin coated on a plastic surface.

[9] = Calcein cytotoxicity assay; assay type: cell-based; conditions: human, lox melanoma cells; 2 hours, calcein AM assay; read-out: 2 Hr Tox LD50
Procedure: LOX human melanoma cells were detached from tissue culture flasks with RPMI medium containing 0.2M urea and 10 mM EDTA, and 0.18 ml of cells were added to each well to a final cell concentration of 5×10^4 cells/well. 20 μl of 10× compound was added to the wells prior to cell addition. Cells were incubated with the compound at 37° C. for 1 hour or 5 hour as indicated. Calcein AM in DPBS (0.02 ml of 5 μM) was added to each well, and the plates were incubated for an additional 1 hour at room temperature. Viable cells were quantitated by reading the fluorescence on a Cytofluor 2300 fluorescent plate reader at 485 nm excitation and 530 nm emission.

[10] = test system: LOX human melanoma cell adhesion to polylysine; assay: LOX melanoma cell adhesion to polylysine; assay type: cell-based; conditions: read-out: Poly Lys IC50
Procedure: as §3

[11] = 50 mg/kg, one hour before histamine challenge
[12] = 100 mg/kg, one hour before histamine challenge

Compound	ED50 [3]	ED50 [4]	ED50 [5]	ED50 [6]	ED50 [7]	inhibition at 10 µM [8]	inhibition at 50 µM [8]	IC50 [8]	CC50 at 2 h [9]	IC50 [10]	DYSP survivors [1, 12]	Pulmonary Resistance in Rats, % Inhibition [2]	other results
CN1C2CCC1C1c3ccccc3C(O)(c3ccccc3)C1C2 (centres unmarked) [AAA]	> 30 mg/kg	> 30 mg/kg	> 10 mg/kg	> 30 mg/kg	> 30 mg/kg	5.2%	5.8%						responders at 50 mg/kg [1, 11]: 0%; inhibition in vivo at 0.5 mg/kg [2]: 35%
COc1ccc(C2C3=C(c4ccccc42)C2CCC(C3)N2)cc1 (centres unmarked) [Compound X]	> 30 mg/kg	17.3 mg/kg	> 30 mg/kg	> 60 mg/kg		20.8%	99.7%	15 µM	67.7 µM	121 µM			
COc1ccc2c(c1)C(c1ccccc1)C1=C2C2CCC(C1)N2 (centres unmarked) [FF]	> 30 mg/kg	> 30 mg/kg		> 30 mg/kg	> 30 mg/kg						0/3	2%	
COc1ccc(C2(O)c3ccccc3C3C4CCC(CC32)N4)cc1 (centres unmarked) [JJ]	> 30 mg/kg	> 30 mg/kg		> 30 mg/kg	> 30 mg/kg	10.1%	33.7%						responders at 50 mg/kg [1, 11]: 33.3%; responders at 100 mg/kg [1, 12]: 66.7%
CN1C2CCC1C1C(=C(c3ccc(F)cc3)c3ccccc31)C2 (centres unmarked) [K]		> 30 mg/kg		14.9 mg/kg	> 30 mg/kg	27.6%	100%	15.5 µM	116 µM	71.6 µM	3/3	34%	DYSP survivors ([1]; 30 mg/kg, one hour before histamine challenge): 0/3; DYSP survivors ([1]; 60 mg/kg, one hour before histamine challenge): 1/3; observation in TBZ test (footnote c) ([4]; p.o., at the dose of 30 marked c): animals were ataxic and depressed at this dose
CN1C2CCC1C1c3ccccc3C(c3ccccc3)C1C2 (centres unmarked) [MM]		9.3 mg/kg	> 10 mg/kg			-1.8%	25.8%						responders at 50 mg/kg [1, 11]: 0%; responders at 100 mg/kg [1, 12]: 66.7%; inhibition in vivo at 0.5 mg/kg [2]: 9%
c1ccc(C2=C3CC4CCC(N4)C3c3ccccc32)cc1 (centres unmarked) [Q]	> 30 mg/kg	3.6 mg/kg	> 10 mg/kg		> 30 mg/kg	0.1%	97.1%	19.1 µM	66.7 µM	83.6 µM	0/3	24%	
COc1ccc(C2=C3CC4CCC(C3c3ccccc32)N4C)cc1 (centres unmarked) [R]	> 30 mg/kg	17.3 mg/kg		> 30 mg/kg	> 30 mg/kg	-27.3%	97.1%	15 µM	138 µM	112 µM	1/3	26%	
COc1ccc2c(c1)C1C3CCC(CC1C2(O)c1ccccc1)N3C (centres unmarked) [UU]	17.3 mg/kg	> 30 mg/kg		> 30 mg/kg	> 30 mg/kg	10.3%	15.9%						inhibition in vivo at 0.5 mg/kg [2]: 2%
COc1ccc2c(c1)C(c1ccccc1)=C1CC3CCC(C12)N3C (centres unmarked) [V]		> 30 mg/kg									0/3		
CN1C2CCC1C1=C(C2)C(c2ccc(F)cc2)c2ccccc21 (centres unmarked) [W]	10.7 mg/kg	> 30 mg/kg		8.9 mg/kg	> 30 mg/kg	36.3%	100%	17.4 µM	103 µM	78.3 µM	3/3	21%	DYSP survivors ([1]; 10 mg/kg, one hour before histamine challenge): 1/3; DYSP survivors ([1]; 20 mg/kg, one hour before histamine challenge): 2/3; DYSP survivors [1, 11]: 2/3
COc1ccc(C2C3=C(c4ccccc42)C2CCC(C3)N2C)cc1 (centres unmarked) [Y]		0.35 mg/kg	> 20 mg/kg	> 30 mg/kg		-1.2%	98.2%	21.6 µM	63.6 µM	105 µM			DYSP survivors ([1]; dose not given): 2/3
COc1ccc2c(c1)C1=C(CC3CCC1N3C)C2c1ccccc1 (centres unmarked) [Z]	17.3 mg/kg	> 30 mg/kg		> 30 mg/kg	> 30 mg/kg	-27.6%	67%	28.1 µM	> 250 µM	> 250 µM	0/3		
